Values of other authors as cited in US20170112865A1, “TREATMENT FOR MELANOMA” (The Board of Regents of the University of Texas System, priority 2014, published 2017).
Each block holds one compound with its values, some of them ahead of it.

Key:
[1] = test system: BRAFV600E/k mutant advanced or malignant melanoma
[2] = test system: BRAF V600E mutation-positive advanced melanoma; conditions: human, in vivo
[3] = in vivo
[4] = in vivo; remark: listed apart in the source
[5] = test system: melanoma; conditions: at 5 years

Compound: CC(=O)Nc1cccc(-n2c(=O)n(C3CC3)c(=O)c3c(Nc4ccc(I)cc4F)n(C)c(=O)c(C)c32)c1 [Trametinib]
Grade 3 adverse effect: hypertension ([1]; Trametinib arm): 12% | Grade 3 adverse effect: rash ([1]; Trametinib arm): 7% | most frequent adverse events ([1]; in vivo): skin rash, diarrhea, edema, hypertension, fatigue

Compound: CC(C)(C)c1nc(-c2cccc(NS(=O)(=O)c3c(F)cccc3F)c2F)c(-c2ccnc(N)n2)s1 [dabrafinib, Dabrafenib]
time within which resistance occurs [2]: 6 to 7 months

half-life [4]: about 36 hours
Compound: C[C@H]1O[C@@H](O[C@H]2[C@@H](O)C[C@H](O[C@H]3[C@@H](O)C[C@H](O[C@H]4CC[C@@]5(C)[C@H](CC[C@@H]6[C@@H]5C[C@@H](O)[C@]5(C)[C@@H](C7=CC(=O)OC7)CC[C@]65O)C4)O[C@@H]3C)O[C@@H]2C)C[C@H](O)[C@@H]1O [digoxin, Digoxin]
plasma concentration at which adverse effects are rare [3]: < 0.8 ng/mL

Compound: interferon
increase in survival [5]: 3%
